Key:
[1] = target: Cyclooxygenase; experiment: Enzyme assay, inhibition of cyclooxygenase (method based on Borgeat et al); assay type: biochemical
[2] = target: Lipoxygenase; experiment: Enzyme assay, inhibition of lipoxygenase (method based on Borgeat et al); assay type: biochemical
[3] = tested on: female rats; experiment: Carrageenin-induced paw oedema; assay type: in vivo; details: Rattus norvegicus, po, swelling measured 1-4 hours after carrageenin
Procedure: (§1) The compound of Example 29/3UB was subjected to the following tests. Results are given in Table II as ED50 mg/kg upon oral administration.
Oedema was induced by the sub-plantar injection of 2% carrageenin (0.1 ml) in the hind paws of female rats (100-130g). Swelling was measured 1-4 hours following carrageenin injection using a micrometer gauge. Drugs in aqueous solution were administered orally to groups of five rats at the time of carrageenin injection. Mean swelling was expressed as a percentage of control values obtained from similar groups of animals receiving vehicle alone.

[4] = tested on: total leucocyte numbers; experiment: Leucocyte accumulation in carrageenin sponge exudates; assay type: in vivo; details: Rattus norvegicus, po, male rats, carrageenin sponge exudate collected at 24 hours
Procedure: as §1
(§2) Inflammatory exudates were collected 24 hours after the subcutaneous implantation in male rats (180-220g) of sterile polyester sponges impregnated with 2% carrageenin. Prostaglandin E2 concentrations in sponge exudates were measured by bioassay and total leucocyte numbers were estimated using counting chambers and phase contrast microscopy. Drugs were administered orally in aqueous solution to groups of five animals at the time of sponge implantation, 5-8 hours later and 3 hours before sponge removal. Results are expressed as a percentage of control values obtained from similar groups of animals receiving vehicle alone. ED50 values were calculated for active compounds. The full dose-response data for lead compounds were subjected to regression analysis and ED50 values with 95% confidence limits were obtained.

[5] = Storage stability at normal room temperature in sealed containers, analysed by T.l.c.; assay type: physicochemical; details: freshly prepared samples, T.l.c. at regular intervals
From the text: Freshly prepared samples of the compound of Example 29/30B and the compound 2B (the latter also being disclosed in European Specification 55 418) were stored separately at normal room temperature in sealed containers and analysed at regular intervals by T.l.c.

[6] = tested on: female mice; experiment: Phenylbenzoquinone (PBQ) induced writhing; assay type: in vivo; details: Mus musculus, po, p.o. 1 hour before PBQ 2.5 mg/kg i.p.
Procedure: as §1
Writhing was induced in groups of 5 female mice (20-25g) following the intraperitoneal injection of phenylbenzoquinone (PBQ; 2.5 mg/kg). Anti- nociceptive effects of drugs were assessed by observing the reduction in writhing responses 10-12½ min after PBQ injection. Drugs were administered orally in aqueous solution 1 hour before PBQ injection and drug effects were expressed as a percentage of control values obtained from animals receiving vehicle alone.

[7] = tested on: Prostaglandin E2; experiment: Prostaglandin synthesis in carrageenin sponge exudates; assay type: in vivo; details: Rattus norvegicus, po; male rats, carrageenin sponge exudate collected at 24 hours; read-out: ED50 Prostaglandin Production (rat)
Procedure: as §1, §2

| Structure (SMILES) | IC50 [1] | IC50 [2] | other results |
| --- | --- | --- | --- |
| O=CN(CC=Cc1ccccc1)C1=NN(c2cccc(C(F)(F)F)c2)CC1 [Example 9A, N-(cinnamyl)-N-[1-(3-trifluoromethylphenyl)-2-pyrazolin-3-yl]formamide] | 2 µM | 1.5 µM |  |
| O=CN(Cc1ccc(F)cc1)C1=NN(c2ccc(Br)c(C(F)(F)F)c2)CC1 [Example 18B, N-[1-(4-bromo-3-trifluoromethylphenyl)-2-pyrazolin-3-yl]-N-(4-fluorobenzyl)formamide] | 2 µM | 5 µM |  |
| O=CN(CC1CC1)C1=NN(c2cccc(C(F)(F)F)c2)CC1 [Example 8A, N-(cyclopropylmethyl)-N-[1-(3-trifluoromethylphenyl)-2-pyrazolin-3-yl]formamide] | 8 µM | 2 µM |  |
| O=CN(CC=CCCl)C1=NN(c2cccc(C(F)(F)F)c2)CC1 [Example 34] | 10 µM | 3 µM |  |
| C#CCN(C=O)C1=NN(c2cccc(C(F)(F)F)c2)CC1 [Example 4A, N-(2-propynyl)-N-[1-(3-trifluoromethylphenyl)-2-pyrazolin-3-yl]formamide] | 3 µM | 0.5 µM |  |
| CNC1=NN(c2cccc(C(F)(F)F)c2)CC1 [Example 2B, 3-methylamino-1-(3-trifluoromethylphenyl)-2-pyrazoline] |  |  | decomposition on storage [5]: significant decomposition after six months |
| C=CCN(C=O)C1=NN(c2cccc(C(F)(F)F)c2)CC1 [Example 3A, N-(2-propenyl)-N-[1-(3-trifluoromethylphenyl)-2-pyrazolin-3-yl]formamide] | 5 µM | 2 µM |  |

Further lines, with some results ahead:

| IC50 [1] | IC50 [2] | Structure (SMILES) | other results |
| --- | --- | --- | --- |
| > 10 µM | 1 µM | CCC(=O)N(C)C1=NN(c2cccc(C(F)(F)F)c2)CC1 [Example 32, N-methyl-N-[1-(3-trifluoromethylphenyl)-2-pyrazolin-3-yl]propionamide] |  |
| 1 µM | 1 µM | CC(=O)N(C)C1=NN(c2cccc(C(F)(F)F)c2)CC1 [29&30B, N-methyl-N-[1-(3-trifluoromethylphenyl)-2-pyrazolin-3-yl] acetamide] | ED50 [3]: 15 mg/kg; ED50 [4]: 57 mg/kg; decomposition on storage [5]: no significant decomposition, 2 years from the outset of the Experiment; ED50 [6]: 45 mg/kg; ED50 [7]: 35 mg/kg |
| 1 µM | 1 µM | CC(=O)N(C)C1=NN(c2ccc(Br)c(C(F)(F)F)c2)CC1 [Example 45, N-methyl-N-[1-(4-bromo-3-trifluoromethylphenyl)-2-pyrazolin-3-yl]acetamide] |  |
| 10 µM | 1 µM | CCCN(C=O)C1=NN(c2cccc(C(F)(F)F)c2)CC1 [Example 5A, N-(n-propyl)-N-[1-(3-trifluoromethylphenyl)-2-pyrazolin-3-yl]-formamide] |  |

Source: EP0119450A1, “Preparation of aminopyrazolines and intermediates used therein” (THE WELLCOME FOUNDATION LIMITED, priority 1983, dated 1984)
